This test addresses T1, AhR (Homo sapiens, UniProt P35869).
T1 construct: The HepG2 CYP1A1-Luc cells do express basal luciferase activity that can be increased via potent AhR agonists or decreased via potent AhR antagonists; endogenous in cells; host or cells: HepG2 (DSMZ #ACC 180) stably carrying a human CYP1A1 promoter-firefly luciferase reporter
T1 sequence (P35869 11-848): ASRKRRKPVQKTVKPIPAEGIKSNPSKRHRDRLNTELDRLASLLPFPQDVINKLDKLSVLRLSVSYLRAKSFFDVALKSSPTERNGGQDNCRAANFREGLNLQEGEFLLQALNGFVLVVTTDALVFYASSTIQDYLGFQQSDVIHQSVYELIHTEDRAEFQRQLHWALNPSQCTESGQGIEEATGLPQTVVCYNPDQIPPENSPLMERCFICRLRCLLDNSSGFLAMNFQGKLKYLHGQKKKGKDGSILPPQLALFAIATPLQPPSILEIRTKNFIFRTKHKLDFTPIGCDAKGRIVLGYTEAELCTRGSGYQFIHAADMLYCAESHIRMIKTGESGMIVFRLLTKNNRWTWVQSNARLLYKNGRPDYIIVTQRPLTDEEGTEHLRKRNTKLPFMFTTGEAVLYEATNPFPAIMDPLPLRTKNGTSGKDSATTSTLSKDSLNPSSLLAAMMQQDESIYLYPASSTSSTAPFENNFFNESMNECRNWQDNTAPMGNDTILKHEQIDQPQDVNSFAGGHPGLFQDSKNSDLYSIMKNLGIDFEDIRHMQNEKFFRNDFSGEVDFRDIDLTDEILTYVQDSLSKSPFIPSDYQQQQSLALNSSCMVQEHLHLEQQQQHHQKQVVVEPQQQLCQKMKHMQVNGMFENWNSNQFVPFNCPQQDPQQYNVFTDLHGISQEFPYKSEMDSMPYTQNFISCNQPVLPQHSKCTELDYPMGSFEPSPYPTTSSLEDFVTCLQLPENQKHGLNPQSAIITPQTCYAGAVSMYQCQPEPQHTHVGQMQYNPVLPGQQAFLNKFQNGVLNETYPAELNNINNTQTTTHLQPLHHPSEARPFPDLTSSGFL
In words: AhR direct luciferase reporter assay in HepG2 cells (HepG2 CYP1A1-LUC). It is filed as cell-based. The settings on record: 18 hours, luciferase activity, no exogenous AhR agonist or 10 nM VAF347, read-out: AhR potency (AhR antagonistic potency, IC50). The text has this:
AhR direct luciferase reporter assay in HepG2 cells.
A stable cell line (HepG2 CYP1A1-LUC) was used in which part of the promoter region of the human CYP1A1 gene is stably integrated into the genome of human HepG2 hepatocytes (DSZM #ACC 180) in front of a Photinus pyralis Firefly Luciferase gene. A 1210 bp fragment comprising part of the human CYP1A1 promoter was isolated via SacI and BglII restriction digestion from Lightswitch Clone S714555 (SwitchGearGenomics) and inserted between the SacI and BglII sites in pGL4.30 (Promega #E8481) in front of the Firefly Luciferase gene. The resulting vector was linearized with NotI, transfected into HepG2 cells (DSMZ #ACC 180) and stably transfected clones selected with 250 μg/ml Hygromycin B. After repetitive rounds of subcloning and testing for robustly regulated luciferase activity after AhR agonist stimulation, a stable clonal HepG2 CYP1A1-Luc cell line was selected.
The HepG2 CYP1A1-Luc cells do express basal luciferase activity that can be increased via potent AhR agonists or decreased via potent AhR antagonists, added to the growth medium of the cells.
In typical reporter assays performed with this cell line, cells are grown in 96-well plates and AhR modulators are titrated into the growth medium in serial dilutions in RPMI-1640 Medium (Sigma #R7509) supplemented with 8.6% fetal calf serum (Sigma #F7524) and containing either no exogenous AhR agonist or 10 nM of the potent AhR agonist VAF347 (Calbiochem #182690). Cells are further cultivated for 18 hours and luciferase activities are determined from extracts of cells in buffers containing D-Luciferine and ATP using a LUMIstar Optima microplate Luminometer from BMG Labtech.
In general terms: In a reporter assay the amount or activity of a reporter protein is the signal.

For `Cc1ccccc1-c1cc2cnc(NC(=O)c3ncnn3C)cc2[nH]1` [2/1], the IC50 (usually the concentration needed to halve the response being measured) is less than 100 nM.

`Cn1ncnc1C(=O)Nc1cc2[nH]c(-c3c(Cl)cccc3Cl)cc2cn1` [2/2]: the half-maximal inhibitory concentration (IC50) was in the range of 100 to 1000 nM.

`Cn1ncnc1C(=O)Nc1cc2[nH]c(-c3ccccc3C(F)F)c(F)c2cn1` [2/3]: the IC50 is less than 100 nM.

On to `Cn1ncnc1C(=O)Nc1cc2[nH]c(-c3ccccc3C(F)F)c(Cl)c2cn1` [2/4], for which the half-inhibitory concentration (IC50) is less than 100 nM.

On to `Cn1ncnc1C(=O)Nc1cc2[nH]c(-c3cc(C(F)F)ccc3F)cc2cn1` [2/5], for which the IC50 fell in the range of 100 to 1000 nM.

As to `Cn1ncnc1C(=O)Nc1cc2[nH]c(-c3cc(C#N)ccc3C(F)(F)F)cc2cn1` [2/6], the 50% inhibitory concentration (IC50) is less than 100 nM.

As for `Cn1ncnc1C(=O)Nc1cc2[nH]c(-c3ccccc3C(C)(C)O)cc2cn1` [2/7], the IC50 was more than 1000 nM.

Regarding `Cn1cncc1C(=O)Nc1cc2[nH]c(-c3ccccc3C(F)F)cc2cn1` [4/1], the half-inhibitory concentration (IC50) was in the range of 100 to 1000 nM.

As for `Cn1ccnc1C(=O)Nc1cc2[nH]c(-c3ccccc3C(F)F)cc2cn1` [4/2], the IC50 was less than 100 nM.

On to `Cc1ocnc1C(=O)Nc1cc2[nH]c(-c3ccccc3C(F)F)cc2cn1` [4/3], for which the half-inhibitory concentration (IC50) was less than 100 nM.

Turning to `Cc1ccccc1-c1cc2cnc(NC(=O)c3ccnn3C)cc2[nH]1` [Example 1, 1-Methyl-N-(2-(o-tolyl)-1H-pyrrolo[3,2-c]pyridin-6-yl)-1H-pyrazole-5-carboxamide], the IC50 fell in the range of 100 to 1000 nM.

Regarding `Cn1nccc1C(=O)Nc1cc2[nH]c(-c3ccccc3C(F)(F)F)cc2cn1` [Example 1/1, 1-Methyl-N-(2-(2-(trifluoromethyl)phenyl)-1H-pyrrolo[3,2-c]pyridin-6-yl)-1H-pyrazole-5-carboxamide], the half-inhibitory concentration (IC50) was less than 100 nM.

Consider `Cn1ncnc1C(=O)Nc1cc2[nH]c(-c3ccccc3C(F)(F)F)cc2cn1` [Example 1/2, 1-Methyl-N-(2-(2-(trifluoromethyl)phenyl)-1H-pyrrolo[3,2-c]pyridin-6-yl)-1H-1,2,4-triazole-5-carboxamide], for which the IC50 is less than 100 nM.

As to `O=C(Nc1cc2[nH]c(-c3ccccc3C(F)(F)F)cc2cn1)c1ccccn1` [Example 1/3, N-(2-(2-(Trifluoromethyl)phenyl)-1H-pyrrolo[3,2-c]pyridin-6-yl) picolinamide], the half-maximal inhibitory concentration (IC50) was less than 100 nM.

For `Cn1ncnc1C(=O)Nc1cc2[nH]c(-c3cc(F)ccc3C(F)(F)F)cc2cn1` [Example 1/4, N-(2-(5-Fluoro-2-(trifluoromethyl)phenyl)-1H-pyrrolo[3,2-c]pyridin-6-yl)-1-methyl-1H-1,2,4-triazole-5-carboxamide], the 50% inhibitory concentration (IC50) is less than 100 nM.

Regarding `Cn1cnnc1C(=O)Nc1cc2[nH]c(-c3ccccc3C(F)F)cc2cn1` [Example 1/5, N-(2-(2-(Difluoromethyl)phenyl)-1H-pyrrolo[3,2-c]pyridin-6-yl)-4-methyl-4H-1,2,4-triazole-3-carboxamide], the IC50 was more than 1000 nM.

As for `Cn1ncnc1C(=O)Nc1cc2[nH]c(-c3ccccc3C(F)F)cc2cn1` [Example 1/6, N-(2-(2-(Difluoromethyl)phenyl)-1H-pyrrolo[3,2-c]pyridin-6-yl)-1-methyl-1H-1,2,4-triazole-5-carboxamide], the IC50 was less than 100 nM.

For the molecule `Cn1cnnc1C(=O)Nc1cc2[nH]c(-c3cc(F)ccc3C(F)(F)F)cc2cn1` [Example 1/7, N-(2-(5-Fluoro-2-(trifluoromethyl)phenyl)-1H-pyrrolo[3,2-c]pyridin-6-yl)-4-methyl-4H-1,2,4-triazole-3-carboxamide], the half-maximal inhibitory concentration (IC50) is less than 100 nM.

As to `Cn1ncnc1C(=O)Nc1cc2[nH]c(-c3cc(F)ccc3C(F)F)cc2cn1` [Example 1/8, N-(2-(2-(Difluoromethyl)-5-fluorophenyl)-1H-pyrrolo[3,2-c]pyridin-6-yl)-1-methyl-1H-1,2,4-triazole-5-carboxamide], the half-maximal inhibitory concentration (IC50) is less than 100 nM.

`Cn1ncnc1C(=O)Nc1cc2[nH]c(-c3ccoc3C(F)F)cc2cn1` [Example 1/9, N-(2-(2-(Difluoromethyl)furan-3-yl)-1H-pyrrolo[3,2-c]pyridin-6-yl)-1-methyl-1H-1,2,4-triazole-5-carboxamide]: the IC50 lay within 100 to 1000 nM.

With `Cn1ncnc1C(=O)Nc1cc2[nH]c(-c3cc(C(F)(F)F)ccc3C(F)(F)F)cc2cn1` [Example 1/10, N-(2-(2,5-Bis(trifluoromethyl)phenyl)-1H-pyrrolo[3,2-c]pyridin-6-yl)-1-methyl-1H-1,2,4-triazole-5-carboxamide], the half-inhibitory concentration (IC50) was less than 100 nM.

Take `Cn1ncnc1C(=O)Nc1cc2[nH]c(-c3cc(C4CC4)ccc3C(F)(F)F)cc2cn1` [Example 1/11, N-(2-(5-Cyclopropyl-2-(trifluoromethyl)phenyl)-1H-pyrrolo[3,2-c]pyridin-6-yl)-1-methyl-1H-1,2,4-triazole-5-carboxamide]: the IC50 was less than 100 nM.

`Cn1ncnc1C(=O)Nc1cc2[nH]c(-c3cc(F)c(F)cc3C(F)F)cc2cn1` [Example 1/12, N-(2-(2-(Difluoromethyl)-4,5-difluorophenyl)-1H-pyrrolo[3,2-c]pyridin-6-yl)-1-methyl-1H-1,2,4-triazole-5-carboxamide]: the IC50 is 100 to 1000 nM.

`CCc1ccc(C(F)(F)F)c(-c2cc3cnc(NC(=O)c4ncnn4C)cc3[nH]2)c1` [Example 1/13, N-(2-(5-Ethyl-2-(trifluoromethyl)phenyl)-1H-pyrrolo[3,2-c]pyridin-6-yl)-1-methyl-1H-1,2,4-triazole-5-carboxamide]: the half-maximal inhibitory concentration (IC50) is less than 100 nM.

For the molecule `CC(C)c1ccccc1-c1cc2cnc(NC(=O)c3ncnn3C)cc2[nH]1` [Example 2, N-(2-(2-Isopropylphenyl)-1H-pyrrolo[3,2-c]pyridin-6-yl)-1-methyl-1H-1,2,4-triazole-5-carboxamide], the IC50 lay within 100 to 1000 nM.

Take `CN(C(=O)c1ncnn1C)c1cc2[nH]c(-c3cc(F)ccc3C(F)F)cc2cn1` [Example 3, N-(2-(2-(Difluoromethyl)-5-fluorophenyl)-1H-pyrrolo[3,2-c]pyridin-6-yl)-N,1-dimethyl-1H-1,2,4-triazole-5-carboxamide]: the half-maximal inhibitory concentration (IC50) is 100 to 1000 nM.

As for `Cc1scnc1C(=O)Nc1cc2[nH]c(-c3ccccc3C(F)F)cc2cn1` [Example 4, N-(2-(2-(Difluoromethyl)phenyl)-1H-pyrrolo[3,2-c]pyridin-6-yl)-5-methylthiazole-4-carboxamide], the half-maximal inhibitory concentration (IC50) was less than 100 nM.

In the case of `Cn1ncnc1C(=O)Nc1cc2[nH]c(-c3ccccc3C(F)F)c(C#N)c2cn1` [Example 5, N-(3-Cyano-2-(2-(difluoromethyl)phenyl)-1H-pyrrolo[3,2-c]pyridin-6-yl)-1-methyl-1H-1,2,4-triazole-5-carboxamide], the half-inhibitory concentration (IC50) was in the range of 100 to 1000 nM.

(Values after patent US11376241B2, “Aryl hydrocarbon receptor (AhR) modulator compounds” (PHENEX PHARMACEUTICALS AG, priority 2017, dated 2022).)
